Test system: LTC4-induced contractions of guinea pig lung parenchyma
Assay: Inhibition of LTC4-induced contractions of guinea pig lung parenchyma strips
Set-up: species or system guinea pig (male Hartley)
Settings: test compound at 10)M (so in the source); 1×10^-8 M LTC4, compound added 5 min before challenge; footnote c = statistically significant (p = 0.05), Student's t test
Experimental: The anti-allergy method of this invention is shown by tests which measure a compound's inhibition of contractile responses of strips of lung parenchyma. Male Hartley guinea pigs (600-800 g body weight) were killed by a blow to the head and then exsanguinated. The lungs were inflated with 5 ml. of air through the trachea, the chest cavity opened, and the lungs perfused in situ through the pulmonary artery with Tyrode's solution. The lower lobe of each lung was excised and dissected into four strips (3×10 mm), each of which was suspended in a constant temperature (37° C.) organ bath containing 10 mL of Tyrode's solution and aerated with 95% O2 -5% CO2. Each lung strip was attached to a Harvard isometric muscle transducer and tension was recorded with a Harvard recording module. The initial tension was adjusted to 2 g and the tissues allowed to equilibrate until a steady baseline was reached. […] The peak contractile response to LTC4 was recorded and expressed as a percent of the maximum response (obtained with 1×10^-4 M histamine) of that lung strip. The effect of each test compound is expressed as percent inhibition of the contractile response calculated as follows: [formula]

Compound: CCCc1c(OCC(O)COc2ccc3c(=O)cc(C(=O)O)oc3c2CCC)ccc(C(C)=O)c1O (stereo not shown) [FPL 55712]
- % Inhibition of LTC4-induced contractions of guinea pig lung parenchyma: 99%
